Source: paper PMC3934957, “A Porphodimethene Chemical Inhibitor of Uroporphyrinogen Decarboxylase” (PLoS ONE, 2014)

Target: T1, uroporphyrinogen decarboxylase (UROD) (Homo sapiens, UniProt P06132)
T1 construct: recombinant UROD (GenBank BC001778) with 5'-histidine tag and thrombin cleavage site
T1 sequence (P06132 1-367): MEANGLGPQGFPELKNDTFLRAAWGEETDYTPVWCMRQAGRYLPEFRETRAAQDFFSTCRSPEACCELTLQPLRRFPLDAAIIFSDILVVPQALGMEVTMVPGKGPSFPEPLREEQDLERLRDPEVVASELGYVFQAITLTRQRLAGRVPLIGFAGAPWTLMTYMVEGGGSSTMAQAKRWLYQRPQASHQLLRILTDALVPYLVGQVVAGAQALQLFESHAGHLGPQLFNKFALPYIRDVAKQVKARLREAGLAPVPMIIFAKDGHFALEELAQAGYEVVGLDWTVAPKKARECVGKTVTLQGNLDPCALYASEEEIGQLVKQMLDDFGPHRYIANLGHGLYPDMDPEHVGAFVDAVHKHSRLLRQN
Experiment: Recombinant UROD enzyme assay with RP-HPLC fluorescence detection of uroporphyrin/coproporphyrin ([…] UROD, […] uroporphyrinogen)
Format: biochemical

CC1=C(CCC(=O)O)C2=Cc3[nH]c(c(C)c3CCC(=O)O)C(C)(C)C3=NC(=Cc4[nH]c(c(C)c4CCC(=O)O)C(C)(C)C1=N2)C(CCC(=O)O)=C3C [PI-16] gave an IC50 of 9.9 µM.
